Values quoted from earlier work in patent US12364698B2 (Janssen Pharmaceutica NV, priority 2015, dated 2025).

Conditions: at a pH of about 7

In the case of `C=CC(=O)N1CCC[C@@H](n2nc(-c3ccc(Oc4ccccc4)cc3)c3c(N)ncnc32)C1` [Ibrutinib, 1-[(3R)-3-[4-amino-3-(4-phenoxyphenyl)-1H-pyrazolo[3,4 d]pyrimidin-1-yl]-1-piperidinyl]-2-propen-1-one], the partition coefficient is listed as “about 4”.
